IC50 data for 27 compounds are collected here from patent US20260297070A1, “CYCLIC [COMPOUND LEFT OUT] WRN INHIBITORS” (Nimbus Wadjet, Inc., priority 2023, published 2026).

In the experiment the target is T1, human Werner helicase (WRN-BV08, Uniprot Q14191, amino acids 517-1235 with L1074F point mutation) (Homo sapiens, UniProt Q14191, L1074F).
T1 construct: Uniprot Q14191, amino acids 517-1235 with L1074F point mutation; TEV-cleavable 8×His (C, cleaved yes); made in house; host or cells: Sf9 insect cells (baculovirus)
In words: WRN (BV08) ADP-Glo Assay. The experiment is classed as biochemical. Conditions: 0.15 nM WRN, 5 μM ATP, 0.1 nM DNA duplex, 15 min preincubation, 60 min at 25° C., pH 7.5, 1% DMSO; read-out: ADP-Glo_hWRN_IC50. Summed up:
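Untagged WRN (Sf9-expressed, TEV-cleaved) at 0.15 nM was preincubated 15 min at 25 °C with compound, then reacted 60 min at 25 °C with 5 μM ATP and 0.1 nM DNA duplex in Bicine pH 7.5, 1 mM MgCl2. ADP-Glo luminescence gave % inhibition; IC50 by four-parameter fit.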

T1 sequence (Q14191 with tags, fused parts or gaps L1074F limits assumed): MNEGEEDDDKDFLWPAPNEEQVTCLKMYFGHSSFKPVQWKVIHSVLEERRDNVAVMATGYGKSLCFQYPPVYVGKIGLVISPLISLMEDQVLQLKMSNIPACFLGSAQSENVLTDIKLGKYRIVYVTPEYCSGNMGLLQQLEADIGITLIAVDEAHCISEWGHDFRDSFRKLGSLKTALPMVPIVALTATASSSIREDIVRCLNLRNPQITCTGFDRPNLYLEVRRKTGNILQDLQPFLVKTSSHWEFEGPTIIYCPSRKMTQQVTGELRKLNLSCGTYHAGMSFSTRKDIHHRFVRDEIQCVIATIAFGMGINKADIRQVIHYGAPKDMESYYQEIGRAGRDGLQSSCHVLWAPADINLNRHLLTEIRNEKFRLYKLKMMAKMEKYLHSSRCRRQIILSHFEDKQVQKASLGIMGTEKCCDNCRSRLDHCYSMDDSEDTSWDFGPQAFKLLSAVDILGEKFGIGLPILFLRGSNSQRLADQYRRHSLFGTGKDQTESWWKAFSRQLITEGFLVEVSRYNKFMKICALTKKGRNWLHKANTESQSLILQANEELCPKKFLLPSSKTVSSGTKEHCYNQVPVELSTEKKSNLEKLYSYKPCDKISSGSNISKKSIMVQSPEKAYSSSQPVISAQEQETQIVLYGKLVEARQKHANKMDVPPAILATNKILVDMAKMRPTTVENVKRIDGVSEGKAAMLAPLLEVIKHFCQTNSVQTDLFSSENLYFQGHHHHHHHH

As for `CNC(=O)C(C(=O)N(Cc1ccnc(C(C)(C)O)c1)[C@@H]1C=CS(=O)(=O)C1)c1ccc(-c2ccc(F)c(F)c2)cc1F` (stereo partly drawn) [I-3, N1-(1,1-dioxido-2,3-dihydrothiophen-3-yl)-N1-((2-(2-hydroxypropan-2-yl)pyridin-4-yl)methyl)-N3-methyl-2-(3,3′,4′-trifluoro-[1,1′-biphenyl]-4-yl)malonamide], the IC50 was below 0.5 µM.
As for `CN(C)C(=O)C(C(=O)N(Cc1ccncc1)C1C=CS(=O)(=O)C1)c1ccc(-c2ccc(F)cc2)cc1` (single isomer, unassigned) [I-362, (2R**)-N′-[(3R*)-1,1-dioxo-2,3-dihydro-1lambda6-thiophen-3-yl]-2-{4′-fluoro-[1,1′-biphenyl]-4-yl}-N,N-dimethyl-N′-[(pyridin-4-yl)methyl]propanediamide], the IC50 was above 50 µM.
Regarding `C#CCCCC(=O)N1CCN(C(=O)c2ccc(CN(C(=O)Cc3ccc(-n4cccc4)cc3F)C3C=CS(=O)(=O)C3)cc2)CC1` (stereo not drawn) [I-229, N-(1,1-dioxo-2,3-dihydro-1lambda6-thiophen-3-yl)-2-[2-fluoro-4-(1H-pyrrol-1-yl)phenyl]-N-({4-[4-(hex-5-ynoyl)piperazine-1-carbonyl]phenyl}methyl)acetamide], the IC50 is 5 to 10 µM.
Regarding `CC(C)(O)c1cc(CN(C(=O)Cn2cc(-c3ccc(C(F)F)cc3)cn2)C2C=CS(=O)(=O)C2)ccn1` (single isomer, unassigned) [I-639], the IC50 is below 0.5 µM.
The figure for `CC(=O)N(C)CC(C(=O)N(Cc1ccncc1)C1C=CS(=O)(=O)C1)c1ccc(-c2ccc(F)cc2)cc1` (stereo not drawn) [I-452, N-(1,1-dioxo-2,3-dihydro-1lambda6-thiophen-3-yl)-2-{4′-fluoro-[1,1′-biphenyl]-4-yl}-3-(N-methylacetamido)-N-[(pyridin-4-yl)methyl]propanamide] is above 50 µM.
`COc1cc(CN(C(=O)C(OC)c2ccc(-c3ccc(F)cc3)cc2F)C2C=CS(=O)(=O)C2)ccn1` (single isomer, unassigned) [I-404, (2R*)-2-{3,4′-difluoro-[1,1′-biphenyl]-4-yl}-N-[(3R**)-1,1-dioxo-2,3-dihydro-1lambda6-thiophen-3-yl]-2-methoxy-N-[(2-methoxypyridin-4-yl)methyl]acetamide]: the IC50 was above 50 µM.
The figure for `CC(C)(O)c1cc(CN(C(=O)C(c2ccc(-c3ccc(F)c(F)c3)cc2F)n2ccnn2)C2C=CS(=O)(=O)C2)ccn1` (single isomer, unassigned) [I-802, (2R*)-N-[(3R**)-1,1-dioxo-2,3-dihydro-1lambda6-thiophen-3-yl]-N-{[2-(2-hydroxypropan-2-yl)pyridin-4-yl]methyl}-2-(1H-1,2,3-triazol-1-yl)-2-{3,3′,4′-trifluoro-[1,1′-biphenyl]-4-yl}acetamide] is 0.5 to 5 µM.
As for `COc1cc(CN(C(=O)C(c2ccc(-c3ccc(F)c(F)c3)cc2F)n2cc(OC(F)F)cn2)[C@@H]2C=CS(=O)(=O)C2)ccn1` (stereo partly drawn) [I-695, 2-[4-(difluoromethoxy)-1H-pyrazol-1-yl]-N-[(3R)-1,1-dioxo-2,3-dihydro-1lambda6-thiophen-3-yl]-N-[(2-methoxypyridin-4-yl)methyl]-2-{3,3′,4′-trifluoro-[1,1′-biphenyl]-4-yl}acetamide], the IC50 was below 0.5 µM.
As for `Cc1cccn1-c1ccc(CC(=O)N(Cc2ccnc(C(C)(C)O)c2)C2C=CS(=O)(=O)C2)c(F)c1` (stereo not drawn) [I-66, N-(1,1-dioxo-2,3-dihydro-1lambda6-thiophen-3-yl)-2-[2-fluoro-4-(2-methyl-1H-pyrrol-1-yl)phenyl]-N-{[2-(2-hydroxypropan-2-yl)pyridin-4-yl]methyl}acetamide], the IC50 is below 0.5 µM.
Regarding `CN(C)C(=O)C(C(=O)N(Cc1nc(C2CC2)cs1)C1C=CS(=O)(=O)C1)c1ccc(-c2ccc(F)c(F)c2)cc1F` (stereo not drawn) [I-25, N′-[(4-cyclopropyl-1,3-thiazol-2-yl)methyl]-N′-(1,1-dioxo-2,3-dihydro-1lambda6-thiophen-3-yl)-N,N-dimethyl-2-{3,3′,4′-trifluoro-[1,1′-biphenyl]-4-yl}propanediamide], the IC50 is below 0.5 µM.
On to `CC(C)c1ccc(CC(=O)N(Cc2ccncc2)C2C=CS(=O)(=O)C2)c(F)c1` (stereo not drawn) [I-151, N-(1,1-dioxo-2,3-dihydro-1lambda6-thiophen-3-yl)-2-[2-fluoro-4-(propan-2-yl)phenyl]-N-[(pyridin-4-yl)methyl]acetamide], for which the IC50 was in the range of 0.5 to 5 µM.
With `CC(=O)N(C)C(C(=O)N(Cc1ccncc1)C1C=CS(=O)(=O)C1)c1ccc(-c2ccc(F)cc2)cc1` (single isomer, unassigned) [I-378], the IC50 was above 50 µM.
In the case of `Cn1c(CC(=O)N(Cc2ccncc2)C2C=CS(=O)(=O)C2)nnc1-c1ccccc1` (stereo not drawn) [I-443, N-(1,1-dioxo-2,3-dihydro-1lambda6-thiophen-3-yl)-2-(4-methyl-5-phenyl-4H-1,2,4-triazol-3-yl)-N-[(pyridin-4-yl)methyl]acetamide], the IC50 was above 50 µM.
Consider `COC(C(=O)N(Cc1ccnc(C(C)(C)O)c1)C1C=CS(=O)(=O)C1)c1ccc(-c2ccc(F)cc2)cc1F` (stereo not drawn) [I-28, 2-{3,4′-difluoro-[1,1′-biphenyl]-4-yl}-N-(1,1-dioxo-2,3-dihydro-1lambda6-thiophen-3-yl)-N-{[2-(2-hydroxypropan-2-yl)pyridin-4-yl]methyl}-2-methoxyacetamide], for which the IC50 is below 0.5 µM.
As for `COc1cc(CN(C(=O)Cc2ccc(-n3cccc3C)cc2F)C2C=CS(=O)(=O)C2)nc(OC)c1` (stereo not drawn) [I-202, N-[(4,6-dimethoxypyridin-2-yl)methyl]-N-(1,1-dioxo-2,3-dihydro-1lambda6-thiophen-3-yl)-2-[2-fluoro-4-(2-methyl-1H-pyrrol-1-yl)phenyl]acetamide], the IC50 is 0.5 to 5 µM.
`CC(=O)Nc1ccc(CN(C(=O)Cc2ccc(-n3cccc3)cc2)C2C=CS(=O)(=O)C2)cc1` (stereo not drawn) [I-302, N-(1,1-dioxo-2,3-dihydro-1lambda6-thiophen-3-yl)-N-[(4-acetamidophenyl)methyl]-2-[4-(1H-pyrrol-1-yl)phenyl]acetamide]: the IC50 lay within 10 to 50 µM.
The figure for `COc1cc(C(C)N(C(=O)Cn2cc(-c3cc(F)c(F)c(F)c3)cn2)C2C=CS(=O)(=O)C2)ccn1` (single isomer, unassigned) [I-830, N-[(3R**)-1,1-dioxo-2,3-dihydro-1lambda6-thiophen-3-yl]-N-[(1R*)-1-(2-methoxypyridin-4-yl)ethyl]-2-[4-(3,4,5-trifluorophenyl)-1H-pyrazol-1-yl]acetamide] is 5 to 10 µM; for `CC(C)(O)c1cc(CN(C(=O)C2Cc3cc(-c4ccc(F)cc4)ccc32)C2C=CS(=O)(=O)C2)ccn1` (stereo not drawn) [I-223, N-(1,1-dioxo-2,3-dihydro-1lambda6-thiophen-3-yl)-3-(4-fluorophenyl)-N-{[2-(2-hydroxypropan-2-yl)pyridin-4-yl]methyl}bicyclo[4.2.0]octa-1,3,5-triene-7-carboxamide] it is 5 to 10 µM; for `O=C(Cc1ccc(-c2ccc(F)cc2)cc1C(F)F)N(Cc1ccncc1)C1C=CS(=O)(=O)C1` (stereo not drawn) [I-196, 2-[3-(difluoromethyl)-4′-fluoro-[1,1′-biphenyl]-4-yl]-N-(1,1-dioxo-2,3-dihydro-1lambda6-thiophen-3-yl)-N-[(pyridin-4-yl)methyl]acetamide] it is 0.5 to 5 µM.
In the case of `CC(C)(O)c1cc(CN(C(=O)Cc2ccc(-n3cccc3)cc2F)C2C=CS(=O)(=O)C2)ccn1` (single isomer, unassigned) [I-40], the IC50 was below 0.5 µM.
Regarding `O=C(CCc1ccc(-n2cccc2)cc1)N(Cc1ccncc1)C1C=CS(=O)(=O)C1` (stereo not drawn) [I-519, N-(1,1-dioxo-2,3-dihydro-1lambda6-thiophen-3-yl)-N-[(pyridin-4-yl)methyl]-3-[4-(1H-pyrrol-1-yl)phenyl]propanamide], the IC50 was above 50 µM.
`COc1cc(CN(C(=O)C(c2ccc(-c3ccc(F)c(F)c3)cc2F)n2cccn2)[C@@H]2C=CS(=O)(=O)C2)ccn1` (stereo partly drawn) [I-683, N-[(3R)-1,1-dioxo-2,3-dihydro-1lambda6-thiophen-3-yl]-N-[(2-methoxypyridin-4-yl)methyl]-2-(1H-pyrazol-1-yl)-2-{3,3′,4′-trifluoro-[1,1′-biphenyl]-4-yl}acetamide]: the IC50 was below 0.5 µM.
As to `O=C(Cc1ccc(C23CC(C2)C3)cc1)N(Cc1ccncc1)C1C=CS(=O)(=O)C1` (stereo not drawn) [I-347, 2-(4-{bicyclo[1.1.1]pentan-1-yl}phenyl)-N-(1,1-dioxo-2,3-dihydro-1lambda6-thiophen-3-yl)-N-[(pyridin-4-yl)methyl]acetamide], the IC50 was 10 to 50 µM.
As for `O=C(CN1CCC(C(F)(F)F)CC1)N(Cc1ccncc1)C1C=CS(=O)(=O)C1` (stereo not drawn) [I-572, N-(1,1-dioxo-2,3-dihydro-1lambda6-thiophen-3-yl)-N-[(pyridin-4-yl)methyl]-2-[4-(trifluoromethyl)piperidin-1-yl]acetamide], the IC50 was above 50 µM.
`CS(=O)(=O)N1CCN(C(C(=O)N(Cc2ccncc2)C2C=CS(=O)(=O)C2)c2ccc(-n3cccc3)cc2)CC1` (stereo not drawn) [I-554, N-(1,1-dioxo-2,3-dihydro-1lambda6-thiophen-3-yl)-2-(4-methanesulfonylpiperazin-1-yl)-N-[(pyridin-4-yl)methyl]-2-[4-(1H-pyrrol-1-yl)phenyl]acetamide]: the IC50 is above 50 µM.
In the case of `O=C(CCc1c[nH]c2cc(F)ccc12)N(Cc1ccncc1)C1C=CS(=O)(=O)C1` (stereo not drawn) [I-368, N-(1,1-dioxo-2,3-dihydro-1lambda6-thiophen-3-yl)-3-(6-fluoro-1H-indol-3-yl)-N-[(pyridin-4-yl)methyl]propanamide], the IC50 lay within 10 to 50 µM.
Turning to `O=C(Cc1ccc(S(F)(F)(F)(F)F)cc1)N(Cc1ccncc1)C1C=CS(=O)(=O)C1` (single isomer, unassigned) [I-51], the IC50 is below 0.5 µM.
